# Measured values taken from patent US8603964B2, “Methods for modulating angiogenesis via dystrophin Dp71” (Institut National de la Sante et de la Recherche Medicale …, priority 2008, dated 2013).
# What was measured:
# [1] = tested on: aortic rings explants of wt mice (C57BL/6); test: Mouse aortic ring explant neovessel formation, wild-type mice; type: cell-based
# Text: Thoracic aortas were removed from 2 months-old mice (C57BL/6 and Dp71-null mice) killed by CO2 asphyxiation and immediately transferred to a culture dish containing ice-cold endothelial cell basal medium (EGM-2; Cambrex Bioscience). The periaortic fibroadipose tissue was carefully removed with fine microdissecting forceps and scissors, paying special attention not to damage the aortic wall. One millimeters-long aortic rinaortic rings explants gs (15 per aorta from 12 mice) were sectioned and rinsed extensively in eight consecutive washes of EGM-2. The rings were then individually embedded in 48-well plates previously coated with 50 μl synthetic basement membrane (Matrigel; BD Bioscience) per well. After 1 hour, 500 μl EGM-2 was added to each well, and the cultures were incubated at 37° C. for 5 days. The culture medium was change each day. […] For all cell treatment, the final DMSO concentration was adjusted to 0.1%. The aortic rings were photographed on day 4 at ×2 magnification with a macroscope (Leica). The angiogenic response was determined by measuring the area of neovessel formation on computer (ImageJ or Photoshop software).
# [2] = tested on: aortic rings explants of Dp71-null mice; test: Mouse aortic ring explant neovessel formation, Dp71-null mice; type: cell-based; parameters: dose or concentration left out as unconfirmed; conditions: same treatment with beta-nf, day 4
# Text: The Dp71-null mice strain was obtained by replacing, via homologous recombination, most of the first and unique exon of Dp71 and of a small part of the Dp71 first intron with a sequence encoding a β-gal-neomycine-(beta-gal) resistance chimeric protein (β-geo). This enabled to monitor with great sensitivity the activity of the promoter using X-gal staining (Sarig et al., 1999).
# Thoracic aortas were removed from 2 months-old mice (C57BL/6 and Dp71-null mice) killed by CO2 asphyxiation and immediately transferred to a culture dish containing ice-cold endothelial cell basal medium (EGM-2; Cambrex Bioscience). The periaortic fibroadipose tissue was carefully removed with fine microdissecting forceps and scissors, paying special attention not to damage the aortic wall. One millimeters-long aortic rinaortic rings explants gs (15 per aorta from 12 mice) were sectioned and rinsed extensively in eight consecutive washes of EGM-2. The rings were then individually embedded in 48-well plates previously coated with 50 μl synthetic basement membrane (Matrigel; BD Bioscience) per well. After 1 hour, 500 μl EGM-2 was added to each well, and the cultures were incubated at 37° C. for 5 days. The culture medium was change each day. […] The angiogenic response was determined by measuring the area of neovessel formation on computer (ImageJ or Photoshop software).
# Dp71 = conditions: cited from earlier work
structure (smiles),measurement,setting,value
"O=c1cc(-c2ccccc2)oc2ccc3ccccc3c12 [beta-nf, beta-naphtoflavone]",inhibition of neovessel formation,"[1]; explants of wt mice, beta-nf in 0.1% DMSO, area of neovessel formation on day 4, P<0.001",50%
same,neoangiogenesis in aortic rings explants (in words),[1]; wild mice strain expressing Dp71,inhibition of neoangiogenesis
same,effect on neovessel formation,[2],without effect
same,Dp71 expression,Dp71,inhibits Dp71 expression
